3 compounds from patent US20190153024A1, “NOVEL SALTS AND POLYMORPHS OF SCY-078” (priority 2015, published 2019) can be followed below.

A short description of data set [1]: Dynamic Vapor Sorption (DVS) water uptake. In kind it is physicochemical. The conditions noted are these: for solid form by XRPD after DVS: after DVS experiment. On the procedure: Dynamic Vapor Sorption (DVS)—The term “DVS” means the procedure described in below. The relative humidity at 25° C. was calibrated against deliquescence point of LiCl, Mg(NO3)2 and KCl.
The DVS of SCY-078 salts were tested according to the above method, using a 10-20 mg sample size. The DVS was measured using a Surface Measurement Systems (SMS) DVS Intrinsic.

Data set [2] can be described thus: Chemical and physical stability of SCY-078 salts on storage (25° C./60% RH, 40° C./75% RH, 60° C.). In kind it is physicochemical. Conditions: Type M 4 days, Type S 1 week. An excerpt:
For all compounds tested other than the trifluoroacetate salts (Type A and B) and the HCl Type I and II salts, the conditions and parameters used for measuring solubility are shown in Table 2A and for measuring stability are showing in Table 3A. The conditions and parameters used for the solubility of the trifluoroacetate salts (Type A and B) and the HCl Type I and II salts are shown in Table 2B and for stability are shown in Table 3B.

Data set [3] in a line: Kinetic solubility of trifluoroacetate Types A and B and HCl Type I (alternative procedure: SGF, FaSSIF and FeSSIF alternative media, acetate pH 5.5, phosphate pH 6.0 alternative media). Conditions: for Form change: residual solid by XRPD. On the procedure:
An alternative media (“FaSSIF alternative media”) was used to study the trifluoroacetate salts (Type A and B) and the HCl Type I salt. More specifically, the media was prepared by weighing 0.17 g of sodium phosphate monobasic (NaH2PO4, anhydrous), 0.021 g of sodium hydroxide, and 0.31 g of sodium chloride into a 50-mL volumetric flask and was dissolve with approximately 48 mL of purified water. The pH was adjusted to exactly 6.5 using 1 M HCl or 1 M NaOH and diluted to volume with purified water. 0.11 g of SIF powder was then added, stirred and sonicated until all the powder was completely dissolved. The solution was equilibrated for 2 hours at RT before use. The solution can be stored at RT for 48 hours or 4° C. for 7 days and should be equilibrated to RT before use
An alternative media (“FeSSIF alternative media”) was used to study the trifluoroacetate salts (Type A and B) and the HCl Type I salt. More specifically, the media was prepared by transferring 0.41 mL of glacial acid and weighing 0.20 g of sodium hydroxide, 0.59 g of sodium chloride into a 50-mL volumetric flask. This was dissolved with approximately 48 mL of purified water. The pH was adjusted to exactly 5.0 using 1 M HCl or 1 M NaOH and diluted to volume with purified water. 0.56 g of SIF powder was added, stirred and sonicated until all the powder is completely dissolved. The solution can be stored at RT for 48 hours or 4° C. for 7 days and should be equilibrated to RT before use.
Acetate Buffer (pH 5.5) Preparation—The acetate buffer (pH 5.5) used for the trifluoroacetate salts (Type A and B) and the HCl Type I salt was prepared by placing 0.60 g sodium acetate (NaC2H3O2.3H2O) in a 100-mL volumetric flask, adding 3 mL of 2 M acetic acid solution, and then adding purified water to volume.
An alternative media (“phosphate (pH 6.0) alternative media”) was used to study the trifluoroacetate salts (Type A and B) and the HCl Type I salt. More specifically, the media was prepared by dissolving 2.72 g of 0.2 M monobasic potassium phosphate (KH2PO4) in purified water, and diluting with purified water t 100 mL. 0.8 g of 0.2 M sodium hydroxide in purified water was diluted with purified water to 100 mL. Then 50 mL of the 0.2 M monobasic potassium phosphate solution was placed in a 200-mL volumetric flask, 5.6 mL of 0.2 M sodium hydroxide solution was added, and then purified water was added to volume.
The trifluoroacetate salts (Type A and B) and the HCl Type I salt were tested using the following alternative procedure. First, 15 mg, 36 mg or 90 mg solid was weighted into a 4-mL plastic tube, and 3 mL of relevant media was added before leaving the suspension on a rolling incubator (25 r/min). For SCF, 90 mg of solid was used. For FaSSIF, acetate buffer (pH 5.5), and phosphate buffer (pH 6.0), 15 mg solid was used. For FeSSIF, 36 mg of solid was used. 1.0 mL aliquot of the suspension was sampled for centrifugation with the supernatant submitted for HPLC and pH measurement and solid for XRPD characterization at 1 hr, 4 hr and/or 24 hrs.
The solubility of trifluoroacetate Type A, Type B and HCl Type I was measured in SGF at ambient temperature. Approximately 90 mg of solid sample was weighted into a 4-mL centrifuge tube, and 3 mL of SGF buffer was added before leaving the suspension on a rolling incubator (25 r/min). 1.0 mL aliquot of the suspension was sampled for centrifugation (10000 rpm, 3 mins) the supernatant was analyzed by HPLC and pH measurement and solid by XRPD characterization at 1 hr, 4 hr and 24 hrs, respectively.
The solubility of trifluoroacetate Type A, Type B and hydrochloride Type I was measured in the FaSSIF alternative media at ambient temperature. Approximately 15 mg of solid sample was weighted into a 4-mL plastic tube, and 3 mL of the media was added before leaving the suspension on a rolling incubator (25 r/min).

The nature of data set [4]: Physical and chemical stability of trifluoroacetate Types A and B and HCl Type I for 1, 2, 4 and 8 weeks. In kind it is physicochemical. Conditions: for physical and chemical stability: 25° C./60% RH, 40° C./75% RH and 60° C. On the procedure:
High Power Liquid Chromatography (HPLC) Method—An Agilent 1260 HPLC with DAD detector was utilized to test solubility or to test purity and stability. […] System suitability was tested by injecting standard solutions five times in each sample sequence, and the relative standard deviation of the peak areas was less than 2%.
Physical and chemical stability evaluation of trifluoroacetate Type A, trifluoroacetate Type B, and HCl Type I was performed at 25° C./60% RH, 40° C./75% RH and 60° C. for 1, 2, 4 and 8 weeks. In the experiments, approximately 20 mg of solid was placed into a 1.5-mL glass vial. The vials were stored under 25° C./60% RH (uncapped), 40° C./75% RH (uncapped) and 60° C. (capped) conditions for 8 weeks. XRPD analysis was then employed to check the crystalline form of the solid, and HPLC was utilized to determine the purity profile at 1, 2, 4 and 8 weeks. […] The solid form change of trifluoroacetate Type A at 2 and 4 weeks was postulated to the air-exposure when the sample was taken out for XRPD characterization.

Setting [5] is: 25° C./60% RH (uncapped), 1 week.
Where [6] appears, read: 25° C./60% RH (uncapped), 2 weeks.
The mark [7] stands for this setting: 25° C./60% RH (uncapped), 4 weeks.
The mark [8] stands for this setting: 25° C./60% RH (uncapped), 8 weeks.
Setting [9] is: 40° C./75% RH (uncapped), 1 week.
[10] abbreviates: 40° C./75% RH (uncapped), 2 weeks.
[11] abbreviates: 40° C./75% RH (uncapped), 4 weeks.
Where [12] appears, read: 40° C./75% RH (uncapped), 8 weeks.

As to `CC(C)[C@@H](C)[C@@]1(C)CC[C@]2(C)[C@H]3CC[C@@H]4[C@@]5(COC[C@]4(C)[C@@H](OC[C@](C)(N)C(C)(C)C)[C@H](n4ncnc4-c4ccncc4)C5)C3=CC[C@@]2(C)[C@@H]1C(=O)O.O=C(O)CC(O)(CC(=O)O)C(=O)O` [SCY-078 citrate Type M], the “water uptake (DVS)” value in data set [1] (25° C., 80% RH) is recorded as 11.0%. Further, the “solid form by XRPD after DVS” value in data set [1] is listed as “converts to partially amorphous”. Besides, the “physical and chemical stability” value was “impurity of SCY-078 citrate Type M increased” in data set [2] (closed dish 60° C.); “physically and chemically stable” in data set [2] (open dish 25° C., 60% RH); “One diffraction peak change and partial crystallinity loss” in data set [2] (open dish 40° C., 75% RH).

Consider `CC(C)[C@@H](C)[C@@]1(C)CC[C@]2(C)[C@H]3CC[C@@H]4[C@@]5(COC[C@]4(C)[C@@H](OC[C@](C)(N)C(C)(C)C)[C@H](n4ncnc4-c4ccncc4)C5)C3=CC[C@@]2(C)[C@@H]1C(=O)O.Cl` [SCY-078 HCl Type I], for which the “water uptake (DVS)” value in data set [1] (25° C./80% RH) came to 6.1 wt %. The “solid form by XRPD after DVS” value in data set [1] was “No form change”. The Form change result in data set [3] (FaSSIF alternative media, 1 hr) is “No”; in data set [3] (FaSSIF alternative media, 4 hrs) it was “No”; in data set [3] (FaSSIF alternative media, 24 hrs), “No”; in data set [3] (FeSSIF alternative media, 1 hr) it was “No”; in data set [3] (FeSSIF alternative media, 4 hrs), “No”; in data set [3] (FeSSIF alternative media, 24 hrs) it was “No”. Further, the Form change result in data set [3] (SGF, 1 hr) is on record as “No”; in data set [3] (SGF, 4 hrs), “No”; in data set [3] (SGF, 24 hrs) it was “No”; in data set [3] (phosphate (pH 6.0) alternative media, 4 hrs), “No”; in data set [3] (phosphate (pH 6.0) alternative media, 24 hrs), “No”. Further, the “form change of residual solid in FaSSIF alternative media” value in data set [3] (FaSSIF alternative media, ambient temperature) is on record as “no form change was observed”. Further, in data set [3] (FeSSIF alternative media, ambient temperature), the “form change of residual solid in FeSSIF alternative media” value is reported as “no form change was observed”. Further, the “form change of residual solid in SGF” value in data set [3] (SGF, ambient temperature) is “no form change was observed”. The “form change of residual solid in acetate buffer” value in data set [3] (acetate buffer pH 5.5, ambient temperature) is “converted to Type II”. The “solubility in acetate buffer (comparison)” value in data set [3] (acetate buffer pH 5.5, ambient temperature, 4 hr and 24 hrs) is on record as “lower solubility”. Further, the “form change of residual solid in phosphate (pH 6.0) alternative media” value in data set [3] (phosphate (pH 6.0) alternative media, ambient temperature) was “No form change was observed”. Moreover, the “solubility in phosphate (pH 6.0) alternative media (comparison)” value in data set [3] (phosphate (pH 6.0) alternative media, ambient temperature, 4 hr and 24 hrs) was “higher solubility”. Besides, the HPLC purity in data set [4] (setting [5]), in data set [4] (setting [6]), in data set [4] (setting [7]), in data set [4] (setting [8]), in data set [4] (setting [9]) and in data set [4] (setting [10]) was 99.9% each time. Further, the HPLC purity in data set [4] (setting [11]) is recorded as 99.9%; in data set [4] (setting [12]), 99.9%; in data set [4] (60° C. (capped), 1 week) it was 99.9%; in data set [4] (60° C. (capped), 2 weeks), 99.9%; in data set [4] (60° C. (capped), 4 weeks), 99.9%; in data set [4] (60° C. (capped), 8 weeks), 99.9%. In addition, the Solid form result in data set [4] (setting [5]), in data set [4] (setting [6]), in data set [4] (setting [7]), in data set [4] (setting [8]), in data set [4] (setting [9]) and in data set [4] (setting [10]) was “Type I” throughout. For the same compound, the Solid form entry in data set [4] (setting [11]) is reported as “Type I”; in data set [4] (setting [12]), “Type I”; in data set [4] (60° C. (capped), 1 week) it was “Type I”; in data set [4] (60° C. (capped), 2 weeks), “Type I”; in data set [4] (60° C. (capped), 4 weeks), “Type I”; in data set [4] (60° C. (capped), 8 weeks) it was “Type I”. Further, the “physical and chemical stability” value in data set [4] (8 weeks) was “physically and chemically stable”. For the same compound, the “Initial HPLC purity” value in data set [4] (Initial) is 99.9%.

`CC(C)[C@@H](C)[C@@]1(C)CC[C@]2(C)[C@H]3CC[C@@H]4[C@@]5(COC[C@]4(C)[C@@H](OC[C@](C)(N)C(C)(C)C)[C@H](n4ncnc4-c4ccncc4)C5)C3=CC[C@@]2(C)[C@@H]1C(=O)O.O=C(O)C(F)(F)F` [SCY-078 Trifluoroacetate Type B]: in data set [1] (25° C./80% RH), the “water uptake (DVS)” value was determined as 3.4 wt %. The “solid form by XRPD after DVS” value in data set [1] is on record as “converted to Type A”. For the same compound, in data set [3] (FaSSIF alternative media, ambient temperature, listed as Trifluoroacetate Type B), the “form change of residual solid in FaSSIF alternative media” value was “converted to Type A”. Also, the “form change of residual solid in FeSSIF alternative media” value in data set [3] (FeSSIF alternative media, ambient temperature, listed as trifluoroacetate Type B) is reported as “no form change was observed”. In data set [3] (SGF, ambient temperature, listed as Trifluoroacetate Type B), the “form change of residual solid in SGF” value is “converted to Type A”. For the same compound, in data set [3] (acetate buffer pH 5.5, ambient temperature, listed as trifluoroacetate Type B), the “form change of residual solid in acetate buffer” value was “converted to Type A”. The “form change of residual solid in phosphate (pH 6.0) alternative media” value in data set [3] (phosphate (pH 6.0) alternative media, ambient temperature, listed as trifluoroacetate Type B) is listed as “converted to Type A at 24 hrs”. The “physical and chemical stability” value in data set [4] (8 weeks, listed as Trifluoroacetate Type B) is on record as “chemically stable, however, physically unstable”.
